Results as given in patent US20230056205A1, “SUBSTITUTED 4,6-DIHYDROSPIRO[[1,2,3]TRIAZOLO[4,5-B]PYRIDINE-7,3'-INDOLINE]-2',5(3H)-DIONE ANALOGUES” (The Board of Regents of The University of Texas System, priority 2019, published 2023).
Read-outs that look alike come from different tables or passages of the source.

Experiments:
[1] = Cytotoxicity assay (CellTiter-Glo); type: cell-based; details: human, Huh7 cells stably expressing DENV-2 replicon
Experimental: Cytotoxicity Assay. Huh7 cells or Huh7 replicon cells were seeded in a 96-well plate. After incubation at 37° C. with 5% CO2 overnight, the cells were treated with 2-fold serial dilutions of compounds. Experiments were performed in duplicates. After 48 h of incubation, cell viability was measured by adding the CellTiter-Glo reagent (Promega) to each well. The cell viability in 0.45% DMSO-treatment groups was treated at 100%. The cell viability in compound-treated wells was normalized to that of DMSO-treated wells. CC50 values were calculated using four parameter logistic regression in GraphPad software Prism 8.0.

DENV-1 replicon = experiment: Luciferase reporter replicon-based screening, DENV-1; type: cell-based, DENV-1 (strain WestPac); details: Dengue virus, DENV1, Huh-7, 48 h, read-out: EC50 DENV-1
Experimental: (§1) Luciferase Reporter Replicon-Based Screening. Huh7 cells containing a luciferase reporter replicon of DENV-1 (strain WestPac), DENV-2 (New Guinea C strain, NGC), DENV-3 (strain D3MY05-34640) and DENV-4 (strain D4MY01-22713) were used in this study. The replicon cells containing the Renilla luciferase and neomycin-resistance genes were generated using a similar strategy as described previously.^55 Briefly, Huh7 DENV-1 to -4 replicon cells were seeded at a density of 10k per well in a 96-well microplate. After incubation at 37° C. with 5% CO2 overnight, the cells were treated with 2-fold serial dilutions of compounds. Experiments were performed in duplicates. After 48 h of incubation, luciferase activities were measured using the EnduRen live-cell substrate (Promega) by following the manufacturer’s instructions. The dose-dependent curve was plotted and EC50 values were calculated using four parameter logistic regression in GraphPad software Prism 8.0.

DENV-3 replicon = experiment: Luciferase reporter replicon-based screening, DENV-3; type: cell-based, DENV-3 (strain D3MY05-34640)
Experimental: as §1

DENV-4 replicon = experiment: Luciferase reporter replicon-based screening, DENV-4; type: cell-based, DENV-4 (strain D4MY01-22713); details: Dengue virus, DENV4, Huh-7, 48 h, read-out: EC50 DENV-4
Experimental: as §1

DENV-2 replicon = experiment: Luciferase reporter replicon-based screening, DENV-2; type: cell-based, DENV-2 (New Guinea C strain, NGC)
Experimental: as §1

[2] = Dengue virus, DENV3, Huh-7, 48 h, read-out: EC50 DENV-3, Huh7 cells stably expressing DENV-3 replicon, 48 h
[3] = Dengue virus, DENV2, Huh-7, 48 h, read-out: EC50 DENV-2, Huh7 cells stably expressing DENV-2 replicon, 48 h

| Structure (SMILES) | CC50 at 48 h [1] | EC50 (DENV-1 replicon) | EC50 (DENV-3 replicon; [2]) | EC50 (DENV-4 replicon) | EC50 (DENV-2 replicon; [3]) | EC50 (DENV-3 replicon; read-out: EC50 DENV-3, Huh7 cells stably expressing DENV-3 replicon, 48 h) | EC50 (DENV-2 replicon; read-out: EC50 DENV-2, Huh7 cells stably expressing DENV-2 replicon, 48 h) |
| --- | --- | --- | --- | --- | --- | --- | --- |
| C[C@@H](c1ccc(Cl)cc1)n1nnc2c1NC(=O)C[C@]21C(=O)N(CCC(C)(C)C)c2ccc(Cl)cc21 [Compound 16, (R)-5ʹ-Chloro-3-((S)-1-(4-chlorophenyl)ethyl)-1ʹ-(3,3-dimethylbutyl)-4,6-dihydrospiro[[1,2,3]triazolo[4,5-b]pyridine-7,3ʹ-indoline]-2ʹ,5(3H)-dione] | > 10000 nM | 1100 nM | 82 nM | 3900 nM | 870 nM | – | – |
| C[C@@H](c1ccc(Cl)cc1)n1nnc2c1NC(=O)C[C@]21C(=O)N(CC2CC2)c2ccc(Cl)cc21 [Compound 17, (R)-5'-Chloro-3-((S)-1-(4-chlorophenyl)ethyl)-1'-(cyclopropylmethyl)-4,6-dihydrospiro[[1,2,3]triazolo[4,5-b]pyridine-7,3'-indoline]-2',5(3H)-dione] | > 10000 nM | 3100 nM | 17 nM | > 5000 nM | 110 nM | – | – |
| C=CCN1C(=O)[C@]2(CC(=O)Nc3c2nnn3[C@@H](C)c2ccc(Cl)cc2)c2cc(Cl)ccc21 [Compound 18, (R)-1'-Allyl-5'-chloro-3-((S)-1-(4-chlorophenyl)ethyl)-4,6-dihydrospiro[[1,2,3]triazolo[4,5-b]pyridine-7,3ʹ-indoline]-2',5(3H)-dione] | > 10000 nM | 2100 nM | 5 nM | > 5000 nM | 38 nM | – | – |
| C#CCN1C(=O)[C@]2(CC(=O)Nc3c2nnn3[C@@H](C)c2ccc(Cl)cc2)c2cc(Cl)ccc21 [Compound 19, (R)-5ʹ-Chloro-3-((S)-1-(4-chlorophenyl)ethyl)-1ʹ-(prop-2-yn-1-yl)-4,6-dihydrospiro [[1,2,3]triazolo[4,5-b]pyridine-7,3ʹ-indoline]-2ʹ,5(3H)-dione] | > 10000 nM | > 5000 nM | 3 nM | > 5000 nM | 69 nM | – | – |
| CC#CCN1C(=O)[C@]2(CC(=O)Nc3c2nnn3[C@@H](C)c2ccc(Cl)cc2)c2cc(Cl)ccc21 [Compound 20, (R)-1'-(But-2-yn-1-yl)-5'-chloro-3-((S)-1-(4-chlorophenyl)ethyl)-4,6-dihydrospiro[[1,2,3]triazolo[4,5-b]pyridine-7,3'-indoline]-2',5(3H)-dione] | > 10000 nM | > 5000 nM | 20 nM | > 5000 nM | 63 nM | – | – |
| CC(C)N1C(=O)C[C@]2(C(=O)Nc3ccc(Cl)cc32)c2nnn([C@@H](C)c3ccc(Cl)cc3)c21 [Compound 21, (R)-5'-Chloro-3-((S)-1-(4-chlorophenyl)ethyl)-4-isopropyl-4,6-dihydrospiro[[1,2,3]triazolo[4,5-b]pyridine-7,3'-indoline]-2',5(3H)-dione] | > 10000 nM | 2100 nM | 310 nM | 4400 nM | 860 nM | – | – |
| CC(C)N1C(=O)[C@]2(CC(=O)N(C(C)C)c3c2nnn3[C@@H](C)c2ccc(Cl)cc2)c2cc(Cl)ccc21 [Compound 22, (R)-5'-Chloro-3-((S)-1-(4-chlorophenyl)ethyl)-1',4-diisopropyl-4,6-dihydrospiro[[1,2,3]triazolo[4,5-b]pyridine-7,3'-indoline]-2ʹ,5(3H)-dione] | > 10000 nM | 3800 nM | 1500 nM | 3000 nM | > 10000 nM | – | – |
| C[C@@H](c1ccc(Cl)cc1)n1nnc2c1N(C)C(=O)C(C)(C)[C@]21C(=O)N(C)c2ccc(Cl)cc21 [Compound 23, (S)-5'-Chloro-3-((S)-1-(4-chlorophenyl)ethyl)-1ʹ,4,6,6-tetramethyl-4,6-dihydrospiro[[1,2,3]triazolo[4,5-b]pyridine-7,3ʹ-indoline]-2ʹ,5(3H)-dione] | > 10000 nM | > 5000 nM | > 5000 nM | > 5000 nM | > 5000 nM | – | – |
| C[C@@H](c1ccc(Cl)cc1)n1nnc2c1NC(=O)C[C@]21C(=O)N(Cc2ccccc2)c2ccc(Cl)cc21 [Compound 24, (R)-1ʹ-Benzyl-5ʹ-chloro-3-((S)-1-(4-chlorophenyl)ethyl)-4,6-dihydrospiro[[1,2,3]triazolo[4,5-b]pyridine-7,3ʹ-indoline]-2ʹ,5(3H)-dione] | > 10000 nM | 2000 nM | 20 to 51 nM | > 5000 nM | 140 to 290 nM | 20 nM | 150 nM |
| C[C@@H](c1ccc(Cl)cc1)n1nnc2c1NC(=O)C[C@]21C(=O)N(Cc2ccc(Cl)cc2)c2ccc(Cl)cc21 [Compound 27, (R)-5'-Chloro-1'-(4-chlorobenzyl)-3-((S)-1-(4-chlorophenyl)ethyl)-4,6-dihydrospiro[[1,2,3]triazolo[4,5-b]pyridine-7,3'-indoline]-2',5(3H)-dione] | > 10000 nM | 2200 nM | 200 nM | 6500 nM | 3300 nM | – | – |
| C[C@@H](c1ccc(Cl)cc1)n1nnc2c1NC(=O)C[C@]21C(=O)N(Cc2ccc(Cl)c(F)c2)c2ccc(Cl)cc21 [Compound 28, (R)-5'-Chloro-1'-(4-chloro-3-fluorobenzyl)-3-((S)-1-(4-chlorophenyl)ethyl)-4,6-dihydrospiro[[1,2,3]triazolo[4,5-b]pyridine-7,3'-indoline]-2',5(3H)-dione] | > 10000 nM | 1500 nM | 290 nM | 5100 nM | 4000 nM | – | – |
| COc1cccc(CN2C(=O)[C@]3(CC(=O)Nc4c3nnn4[C@@H](C)c3ccc(Cl)cc3)c3cc(Cl)ccc32)c1 [Compound 29, (R)-5'-Chloro-3-((S)-1-(4-chlorophenyl)ethyl)-1'-(3-methoxybenzyl)-4,6-dihydrospiro[[1,2,3]triazolo[4,5-b]pyridine-7,3'-indoline]-2',5(3H)-dione] | > 10000 nM | 2600 nM | 87 nM | 6200 nM | 830 nM | – | – |
| COc1cc(CN2C(=O)[C@]3(CC(=O)Nc4c3nnn4[C@@H](C)c3ccc(Cl)cc3)c3cc(Cl)ccc32)cc(OC)c1 [Compound 30, (R)-5'-Chloro-3-((S)-1-(4-chlorophenyl)ethyl)-1'-(3,5-dimethoxybenzyl)-4,6-dihydrospiro[[1,2,3]triazolo[4,5-b]pyridine-7,3'-indoline]-2',5(3H)-dione] | > 10000 nM | 3400 nM | 790 nM | 7400 nM | 3100 nM | – | – |
| C[C@@H](c1ccc(Cl)cc1)n1nnc2c1NC(=O)C[C@]21C(=O)N(Cc2cc(C(C)(C)C)cc(C(C)(C)C)c2)c2ccc(Cl)cc21 [Compound 31, (R)-5'-Chloro-3-((S)-1-(4-chlorophenyl)ethyl)-1'-(3,5-di-tert-butylbenzyl)-4,6-dihydrospiro[[1,2,3]triazolo[4,5-b]pyridine-7,3ʹ-indoline]-2',5(3H)-dione] | > 10000 nM | 4600 nM | 5900 nM | 4900 nM | > 10000 nM | – | – |
| C[C@@H](c1ccc(Cl)cc1)n1nnc2c1NC(=O)C[C@]21C(=O)N(CCc2ccccc2)c2ccc(Cl)cc21 [Compound 32, (R)-5'-Chloro-3-((S)-1-(4-chlorophenyl)ethyl)-1'-phenethyl-4,6-dihydrospiro[[1,2,3]triazolo[4,5-b]pyridine-7,3'-indoline]-2',5(3H)-dione] | > 10000 nM | 1100 nM | 190 nM | > 5000 nM | 600 nM | – | – |
| C[C@@H](c1ccc(Cl)cc1)n1nnc2c1NC(=O)C[C@]21C(=O)N(Cc2ccccn2)c2ccc(Cl)cc21 [Compound 33, (R)-5'-chloro-3-((S)-1-(4-chlorophenyl)ethyl)-1'-(pyridin-2-ylmethyl)-4,6-dihydrospiro[[1,2,3]triazolo[4,5-b]pyridine-7,3'-indoline]-2',5(3H)-dione] | > 10000 nM | > 5000 nM | 3 nM | > 5000 nM | 20 nM | – | – |
| C[C@@H](c1ccc(Cl)cc1)n1nnc2c1NC(=O)C[C@]21C(=O)N(Cc2cccnc2)c2ccc(Cl)cc21 [Compound 34, (R)-5'-Chloro-3-((S)-1-(4-chlorophenyl)ethyl)-1'-(pyridin-3-ylmethyl)-4,6-dihydrospiro[[1,2,3]triazolo[4,5-b]pyridine-7,3'-indoline]-2',5(3H)-dione] | > 10000 nM | 3200 nM | 21 nM | > 5000 nM | 29 nM | – | – |
